Measured values reported in patent publication US9233979B2, “Compounds that are ERK inhibitors” (Merck Sharp & Dohme Corp., priority 2012, dated 2016).

Target: phosphorylated active hERK2 enzyme (Homo sapiens (Human), UniProt P28482)
Assay: Active Human ERK2 (hERK2) Activity Assay (IMAP-FP)
Assay type: biochemical
Details: Table 6, 0.5 nM hERK2, 30 μM ATP, 10 point titration, read-out: AERK2 IC50
How it was run: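 IMAP detection beads in buffer with 24 mM NaCl stopped the reaction, and fluorescence polarization was read after 60 min binding.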

phosphorylated active hERK2 enzyme, sequence (P28482 whole entry): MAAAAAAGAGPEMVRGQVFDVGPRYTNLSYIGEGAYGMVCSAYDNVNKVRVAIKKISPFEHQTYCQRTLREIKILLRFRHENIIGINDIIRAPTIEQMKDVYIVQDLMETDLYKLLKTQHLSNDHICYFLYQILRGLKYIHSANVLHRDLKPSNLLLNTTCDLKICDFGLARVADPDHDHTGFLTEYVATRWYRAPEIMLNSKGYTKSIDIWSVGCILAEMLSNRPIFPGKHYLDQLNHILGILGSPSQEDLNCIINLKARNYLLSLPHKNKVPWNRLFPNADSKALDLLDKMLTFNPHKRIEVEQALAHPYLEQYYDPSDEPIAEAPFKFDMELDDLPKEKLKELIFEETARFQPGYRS

Structure (SMILES)	IC50 [nM]
CCNc1n[nH]c2cc(NC(=O)NC(c3ccc(F)cc3)C(C)(C)O)ncc12 (stereo not drawn) [Example 429, 1-[3-(ethylamino)-1H-pyrazolo[4,3-c]pyridin-6-yl]-3-[1-(4-fluorophenyl)-2-hydroxy-2-methylpropyl]urea]	1.1
CCNc1n[nH]c2cc(NC(=O)NC(c3ccc(F)cc3)C(C)(C)OC)ncc12 (stereo not drawn) [Example 430, 1-[3-(ethylamino)-1H-pyrazolo[4,3-c]pyridin-6-yl]-3-[1-(4-fluorophenyl)-2-methoxy-2-methylpropyl]urea]	0.6
CCNc1n[nH]c2cc(NC(=O)N[C@@H](c3ccccc3)C(C)(C)OC)ncc12 [Example 431, 1-[3-(ethylamino)-1H-pyrazolo[4,3-c]pyridin-6-yl]-3-[(1S)-2-methoxy-2-methyl-1-phenylpropyl]urea]	0.5
COC(C)(C)C(NC(=O)Nc1cc2[nH]nc(N3C[C@@H](C)O[C@@H](C)C3)c2cn1)c1ccc(F)cc1 (stereo partly drawn) [Example 432, 1-{3-[(2R,6S)-2,6-dimethylmorpholin-4-yl]-1H-pyrazolo[4,3-c]-pyridin-6-yl}-3-[1-(4-fluorophenyl)-2-methoxy-2-methylpropyl]urea]	2.4
CC(C)(O)[C@@H](NC(=O)Nc1cc2[nH]nc(N3CCOCC3)c2cn1)c1ccccc1 [Example 433, 1-[(1S)-2-hydroxy-2-methyl-1-phenylpropyl]-3-(3-morpholin-4-yl-1H-pyrazolo[4,3-c]-pyridin-6-yl)urea]	0.5
CC(Nc1n[nH]c2cc(NC(=O)N[C@@H](c3ccccc3)C(C)(C)O)ncc12)C(F)(F)F (stereo partly drawn) [Example 434, 1-[(1S)-2-hydroxy-2-methyl-1-phenylpropyl]-3-{3-[(2,2,2-trifluoro-1-methylethyl)-amino]-1H-pyrazolo[4,3-c]-pyridin-6-yl}urea]	0.7
C[C@@H]1CN(c2n[nH]c3cc(NC(=O)NC(c4ccc(F)cc4)C(C)(C)O)ncc23)C[C@H](C)O1 (stereo partly drawn) [Example 435, 1-{3-[(2R,6S)-2,6-dimethylmorpholin-4-yl]-1H-pyrazolo[4,3-c]-pyridin-6-yl}-3-[1-(4-fluorophenyl)-2-hydroxy-2-methylpropyl]urea]	1.6
C[C@@H]1CN(c2n[nH]c3cc(NC(=O)N[C@@H](c4ccccc4)C(C)(C)O)ncc23)C[C@H](C)O1 [Example 436, 1-{3-[(2R,6S)-2,6-dimethylmorpholin-4-yl]-1H-pyrazolo[4,3-c]-pyridin-6-yl}-3-[(1S)-2-hydroxy-2-methyl-1-phenylpropyl]urea]	0.8
O=C(Nc1cc2[nH]nc(N3CCOCC3)c2cn1)N[C@H](CO)c1ccccc1 [Example 437, 1-[(1S)-2-hydroxy-1-phenylethyl]-3-(3-morpholin-4-yl-1H-pyrazolo[4,3-c]pyridin-6-yl)urea]	0.4
CC(C)(O)[C@@H](NC(=O)Nc1cc2[nH]nc(N3CCOCC3)c2cn1)c1ccc(F)cc1 [Example 438, 1-[(1S)-1-(4-fluorophenyl)-2-hydroxy-2-methylpropyl]-3-(3-morpholin-4-yl-1H-pyrazolo[4,3-c]-pyridin-6-yl)urea]	0.4
O=C(Nc1cc2[nH]nc(N3CC4CCC(C3)O4)c2cn1)N[C@H](CO)c1ccccc1 [Example 439, 1-[(1S)-2-hydroxy-1-phenylethyl]-3-[3-(8-oxa-3-azabicyclo[3.2.1]-oct-3-yl)-1H-pyrazolo[4,3-c]-pyridin-6-yl]urea]	1.9
O=C(Nc1cc2[nH]nc(N3CCOCC3)c2cn1)N[C@H](COC(F)F)c1ccccc1 [Example 440, 1-[(1S)-2-(difluoromethoxy)-1-phenylethyl]-3-(3-morpholin-4-yl-1H-pyrazolo[4,3-c]pyridin-6-yl)urea]	0.4
COC[C@@H](NC(=O)Nc1cc2[nH]nc(N3CC4CCC(C3)O4)c2cn1)c1ccccc1 [Example 441, 1-[(1S)-2-methoxy-1-phenylethyl]-3-[3-(8-oxa-3-azabicyclo[3.2.1]-oct-3-yl)-1H-pyrazolo[4,3-c]-pyridin-6-yl]urea]	0.9
CC(C)(O)[C@@H](NC(=O)Nc1cc2[nH]nc(N3CC4CCC(C3)O4)c2cn1)c1ccccc1 [Example 442, 1-[(1S)-2-hydroxy-2-methyl-1-phenylpropyl]-3-[3-(8-oxa-3-azabicyclo[3.2.1]-oct-3-yl)-1H-pyrazolo[4,3-c]-pyridin-6-yl]urea]	0.5
CC(C)(O)[C@@H](NC(=O)Nc1cc2[nH]nc(N)c2cn1)c1ccc(F)cc1 [Example 443, 1-(3-amino-1H-pyrazolo[4,3-c]-pyridin-6-yl)-3-[(1S)-1-(4-fluorophenyl)-2-hydroxy-2-methylpropyl]urea]	0.7
C[C@@H](NC(=O)Nc1cc2[nH]nc(N)c2c(Cl)n1)c1ccccc1 [Example 444, 1-(3-amino-4-chloro-1H-pyrazolo[4,3-c]-pyridin-6-yl)-3-[(1R)-1-phenylethyl]urea]	1.2
CC(C)(O)[C@@H](NC(=O)Nc1cc2[nH]nc(N3CC4CC3CO4)c2cn1)c1ccc(F)cc1 (stereo partly drawn) [Example 446, 1-[(1S)-1-(4-fluorophenyl)-2-hydroxy-2-methylpropyl]-3-[3-(2-oxa-5-azabicyclo[2.2.1]hept-5-yl)-1H-pyrazolo[4,3-c]pyridin-6-yl]urea]	0.8
CC(C)(O)[C@@H](NC(=O)Nc1cc2[nH]nc(N3CC4CC3CO4)c2cn1)c1ccccc1 (stereo partly drawn) [Example 447, 1-[(1S)-2-hydroxy-2-methyl-1-phenylpropyl]-3-[3-(2-oxa-5-azabicyclo[2.2.1]-hept-5-yl)-1H-pyrazolo[4,3-c]-pyridin-6-yl]urea]	1.5
CCNc1n[nH]c2cc(NC(=O)N[C@@H](c3ccc(F)cc3)C(C)(C)O)ncc12 [Example 448, 1-[3-(ethylamino)-1H-pyrazolo[4,3-c]pyridin-6-yl]-3-[(1S)-1-(4-fluorophenyl)-2-hydroxy-2-methylpropyl]urea]	0.4
C[C@@H](NC(=O)Nc1cc2[nH]nc(N3CC4CC3CO4)c2cn1)c1ccccc1 (stereo partly drawn) [Example 449, 1-[3-(2-oxa-5-azabicyclo[2.2.1]-hept-5-yl)-1H-pyrazolo[4,3-c]-pyridin-6-yl]-3-[(1R)-1-phenylethyl]urea]	6
O=C(Nc1cc2[nH]nc(N3CC4CC3CO4)c2cn1)N[C@H](CO)c1ccccc1 (stereo partly drawn) [Example 450, 1-[(1S)-2-hydroxy-1-phenylethyl]-3-[3-(2-oxa-5-azabicyclo[2.2.1]-hept-5-yl)-1H-pyrazolo[4,3-c]-pyridin-6-yl]urea]	4.3
COC[C@@H](NC(=O)Nc1cc2[nH]nc(N3CC4CC3CO4)c2cn1)c1ccccc1 (stereo partly drawn) [Example 451, 1-[(1S)-2-methoxy-1-phenylethyl]-3-[3-(2-oxa-5-azabicyclo[2.2.1]-hept-5-yl)-1H-pyrazolo[4,3-c]-pyridin-6-yl]urea]	3
COc1nc(NC(=O)N[C@H](C)c2ccccc2)cc2[nH]nc(N)c12 [Example 452, 1-(3-amino-4-methoxy-1H-pyrazolo[4,3-c]-pyridin-6-yl)-3-[(1R)-1-phenylethyl]urea]	0.7
C[C@@H](NC(=O)Nc1cc2[nH]nc(N3CC4CCC(C3)O4)c2cn1)c1ccccc1 [Example 453, 1-[3-(8-oxa-3-azabicyclo[3.2.1]-oct-3-yl)-1H-pyrazolo[4,3-c]-pyridin-6-yl]-3-[(1R)-1-phenylethyl]urea]	3.4
CCNc1n[nH]c2cc(NC(=O)N[C@H](C)c3ccccc3)nc(Cl)c12 [Example 454, 1-[4-chloro-3-(ethylamino)-1H-pyrazolo[4,3-c]pyridin-6-yl]-3-[(1R)-1-phenylethyl]urea]	11.8
CC(C)(O)[C@@H](NC(=O)Nc1cc2[nH]nc(NC(=O)N3C[C@H]4COC[C@H]4C3)c2cn1)c1ccc(F)cc1 [Example 457, (3aR,6aS)-N-(6-(3-((S)-1-(4-fluorophenyl)-2-hydroxy-2-methylpropyl)-ureido)-1H-pyrazolo[4,3-c]-pyridin-3-yl)-tetrahydro-1H-furo[3,4-c]pyrrole-5(3H)-carboxamide]	3.7
C[C@@H](NC(=O)Nc1cc2[nH]nc(NC(=O)N3C[C@H]4COC[C@H]4C3)c2cn1)c1ccc(F)cc1 [Example 458, (3aR,6aS)-N-(6-(3-((R)-1-(4-fluorophenyl)ethyl)ureido)-1H-pyrazolo[4,3-c]pyridin-3-yl)tetrahydro-1H-furo[3,4-c]pyrrole-5(3H)-carboxamide]	14.3
